The target of test [1] is T1, rat adrenergic α1B receptor (Rattus norvegicus, UniProt P15823).
T1 construct: rat adrenergic α1B receptor obtained from Wistar Rat liver; from tissue; host or cells: Wistar rat liver
T1 sequence (P15823 1-515): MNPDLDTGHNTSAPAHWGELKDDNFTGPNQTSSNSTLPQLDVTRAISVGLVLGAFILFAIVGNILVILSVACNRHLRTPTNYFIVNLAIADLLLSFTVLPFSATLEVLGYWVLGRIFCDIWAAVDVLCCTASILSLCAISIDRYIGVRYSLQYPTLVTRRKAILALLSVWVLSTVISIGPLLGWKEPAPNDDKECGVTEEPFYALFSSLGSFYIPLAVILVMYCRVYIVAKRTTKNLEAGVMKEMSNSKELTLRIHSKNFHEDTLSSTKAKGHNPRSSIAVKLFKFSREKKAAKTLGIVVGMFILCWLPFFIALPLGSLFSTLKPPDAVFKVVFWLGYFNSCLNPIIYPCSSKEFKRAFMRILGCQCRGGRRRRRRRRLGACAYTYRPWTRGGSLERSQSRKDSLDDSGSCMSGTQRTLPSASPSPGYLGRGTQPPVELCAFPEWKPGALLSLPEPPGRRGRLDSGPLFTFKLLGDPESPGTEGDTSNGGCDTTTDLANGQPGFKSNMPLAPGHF
Kind of test: Radioligand binding, adrenergic α1B receptor ([3H]Prazosin). The settings on record: 0.1 μM compound, Wistar rat liver, read-out: Percentage inhibition of ligand binding, Adrenergic α1B. The method, boiled down:
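Wistar rat liver α1B receptor preparation incubated with 0.25 nM [3H]prazosin and compound for 60 min at 25° C in 50 mM Tris-HCl pH 7.4, 0.5 mM EDTA; nonspecific binding defined with 10 μM phentolamine.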

For test [2], the target named is T2, human recombinant adrenergic α2B receptor (Homo sapiens, UniProt P18089).
T2 construct: expressed in transfected cells; host or cells: CHO-K1
T2 sequence (P18089 1-450): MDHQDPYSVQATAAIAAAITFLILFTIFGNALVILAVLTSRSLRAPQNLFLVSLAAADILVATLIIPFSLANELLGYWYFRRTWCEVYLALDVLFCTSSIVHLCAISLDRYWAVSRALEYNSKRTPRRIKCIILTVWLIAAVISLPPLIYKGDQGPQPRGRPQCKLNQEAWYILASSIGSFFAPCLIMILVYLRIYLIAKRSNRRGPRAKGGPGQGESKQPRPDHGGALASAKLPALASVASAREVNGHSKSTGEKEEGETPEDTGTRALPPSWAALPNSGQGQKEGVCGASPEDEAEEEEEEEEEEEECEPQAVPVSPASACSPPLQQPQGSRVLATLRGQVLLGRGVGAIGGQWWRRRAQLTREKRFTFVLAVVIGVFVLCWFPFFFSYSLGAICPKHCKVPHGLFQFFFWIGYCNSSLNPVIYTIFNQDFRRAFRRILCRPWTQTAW
The test can be described thus: Radioligand binding, adrenergic α2B receptor ([3H]Rauwolscine). The settings on record: 0.1 μM compound, CHO-K1 cells, read-out: Percentage inhibition of ligand binding, Adrenergic α2B. In a few lines: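 Percent inhibition of specific [3H]Rauwolscine (2.5 nM) binding, compounds at ≤1 μM, 1% DMSO vehicle, 10 μM prazosin defining nonspecific. Receptor: human α2B expressed in CHO-K1 cells, 60 min incubation at 25 °C in Tris-HCl pH 7.4 buffer (MgCl2, EDTA, BSA); filtered, washed, counted.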

The target of test [3] is T3, human recombinant adrenergic α1D receptor (Homo sapiens, UniProt P25100).
T3 construct: expressed in transfected cells; host or cells: HEK-293
T3 sequence (P25100 1-572): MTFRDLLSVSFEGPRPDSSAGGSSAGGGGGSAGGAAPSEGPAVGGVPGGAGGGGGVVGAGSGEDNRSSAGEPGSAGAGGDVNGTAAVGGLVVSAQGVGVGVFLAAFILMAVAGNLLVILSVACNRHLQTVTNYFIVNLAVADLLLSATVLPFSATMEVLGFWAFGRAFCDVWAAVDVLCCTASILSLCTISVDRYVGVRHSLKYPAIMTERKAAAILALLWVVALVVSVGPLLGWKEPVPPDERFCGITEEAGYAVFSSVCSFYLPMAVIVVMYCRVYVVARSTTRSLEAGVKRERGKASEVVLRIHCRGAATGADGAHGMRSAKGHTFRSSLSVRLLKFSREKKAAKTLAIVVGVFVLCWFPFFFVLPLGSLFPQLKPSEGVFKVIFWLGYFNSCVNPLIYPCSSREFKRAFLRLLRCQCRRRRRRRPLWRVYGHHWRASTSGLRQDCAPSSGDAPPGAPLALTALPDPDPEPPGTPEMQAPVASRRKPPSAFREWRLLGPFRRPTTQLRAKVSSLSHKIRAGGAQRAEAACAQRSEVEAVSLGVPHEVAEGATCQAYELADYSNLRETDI
The test can be described thus: Radioligand binding, adrenergic α1D receptor ([3H]Prazosin). The settings on record: 0.1 μM compound; HEK-293 cells; 0.6 nM [3H]Prazosin; read-out: Percentage inhibition of ligand binding, Adrenergic α1D. The method, then: Compounds were incubated with 0.6 nM [3H]Prazosin for 60 min at 25° C. Non-specific binding was estimated in the presence of 10 μM phentolamine. Receptor proteins were filtered and washed, the filters were then counted to determine [3H]Prazosin specifically bound. Compounds were screened at 1 μM or lower, using 1% DMSO as vehicle. Biochemical assay results are presented as the percent inhibition of specific binding in Table 2.

Test [4] addresses T4, human recombinant adrenergic α2A receptor (Homo sapiens, UniProt P08913).
T4 construct: expressed in transfected cells; host or cells: insect Sf9 cells
T4 sequence (P08913 1-465): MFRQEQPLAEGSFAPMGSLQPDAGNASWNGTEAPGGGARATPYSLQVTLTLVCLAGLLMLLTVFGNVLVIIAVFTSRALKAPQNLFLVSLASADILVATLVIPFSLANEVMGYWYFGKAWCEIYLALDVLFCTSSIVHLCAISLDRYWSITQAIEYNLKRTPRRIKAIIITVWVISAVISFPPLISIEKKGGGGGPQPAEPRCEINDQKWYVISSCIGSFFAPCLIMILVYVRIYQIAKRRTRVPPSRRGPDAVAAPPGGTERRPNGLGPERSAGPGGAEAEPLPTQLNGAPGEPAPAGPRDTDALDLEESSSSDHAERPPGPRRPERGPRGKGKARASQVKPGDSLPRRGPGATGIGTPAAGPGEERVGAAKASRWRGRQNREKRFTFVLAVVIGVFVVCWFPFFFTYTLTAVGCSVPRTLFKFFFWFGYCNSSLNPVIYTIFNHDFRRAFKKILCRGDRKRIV
Kind of test: Radioligand binding, adrenergic α2A receptor ([3H]MK-912). The settings on record: 0.1 μM compound; Sf9 cells; 1 nM [3H]MK-912; read-out: Percentage inhibition of ligand binding, Adrenergic α2A. The method, boiled down:
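Percent inhibition of specific [3H]MK-912 (1 nM) binding measured by filtration counting, compounds tested at ≤1 μM in 1% DMSO. Receptor: human α2A from Sf9 cells; incubation 60 min, 25 °C, pH 7.4; 10 μM WB-4101 defined nonspecific binding.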

Usually inhibition stands for the change of the read-out against control, counted positive when it falls.

For `Cc1ccc2c(c1)c1c(n2-c2cccc(-c3cccn3C)c2)CCN(C)C1` [Compound No. 69, 2,8-dimethyl-5-(3-(1-methyl-1H-pyrrol-2-yl)phenyl)-2,3,4,5-tetrahydro-1H-pyrido[4,3-b]indole], the inhibition at 0.1 µM in test [1] turned out to be 11%; in test [2], 3%; in test [3], 9%; in test [4], 39%.

`Cc1ccc2c(c1)c1c(n2-c2ccccc2-c2sccc2C)CCN(C)C1` [Compound No. 102, 2,8-dimethyl-5-(2-(3-methylthiophen-2-yl)phenyl)-2,3,4,5-tetrahydro-1H-pyrido[4,3-b]indole]: the inhibition at 0.1 µM was found to be 57% in test [1], 90% in test [2], 50% in test [3] and 85% in test [4].

Take `Cc1ccc2c(c1)c1c(n2-c2ccc(-c3ccncc3)cn2)CCN(C)C1` [Compound No. 132, 5-(3,4′-bipyridin-6-yl)-2,8-dimethyl-2,3,4,5-tetrahydro-1H-pyrido[4,3-b]indole]: the inhibition at 0.1 µM in test [1] amounted to 33%; in test [2] it was 69%; in test [3], 28%; in test [4] it was 17%.

With `Cc1ccc2c(c1)c1c(n2-c2cccc(-c3cnn(C)c3)c2)CCN(C)C1` [Compound 46, 2,8-dimethyl-5-(3-(1-methyl-1H-pyrazol-4-yl)phenyl)-2,3,4,5-tetrahydro-1H-pyrido[4,3-b]indole], the inhibition at 0.1 µM in test [1] was -7%; in test [2], 21%; in test [3], 8%; in test [4], 48%.

Consider `Cc1ccc2c(c1)c1c(n2-c2ccccc2-c2cnn(C)c2)CCN(C)C1` [Compound No. 86, 2,8-dimethyl-5-(2-(1-methyl-1H-pyrazol-4-yl)phenyl)-2,3,4,5-tetrahydro-1H-pyrido[4,3-b]indole], for which the inhibition at 0.1 µM turned out to be 26% in test [1], 67% in test [2], 22% in test [3] and 33% in test [4].

With `Cc1ccc2c(c1)c1c(n2-c2ccc(-c3cccnc3)cn2)CCN(C)C1` [Compound No. 133, 5-(3,3′-bipyridin-6-yl)-2,8-dimethyl-2,3,4,5-tetrahydro-1H-pyrido[4,3-b]indole], the inhibition at 0.1 µM in test [1] came out at 63%; in test [2], 77%; in test [3], 53%; in test [4], 31%.

Consider `Cc1ccc2c(c1)c1c(n2-c2cccc(-c3ccnn3C)c2)CCN(C)C1` [Compound No. 66, 2,8-dimethyl-5-(3-(1-methyl-1H-pyrazol-5-yl)phenyl)-2,3,4,5-tetrahydro-1H-pyrido[4,3-b]indole], for which the inhibition at 0.1 µM in test [1] stood at 13%; in test [2] it was 18%; in test [3] it was 11%; in test [4], 39%.

As for `Cc1ccc2c(c1)c1c(n2-c2ccccc2-c2cc3ccccc3s2)CCN(C)C1` [Compound No. 103, 5-(2-(benzo[b]thiophen-2-yl)phenyl)-2,8-dimethyl-2,3,4,5-tetrahydro-1H-pyrido[4,3-b]indole], the inhibition at 0.1 µM came to 41% in test [1], 97% in test [2], 62% in test [3] and 98% in test [4].

Regarding `CNC(=O)c1cc(-n2c3c(c4cc(C)ccc42)CN(C)CC3)cs1` [Compound No. 78], the inhibition at 0.1 µM turned out to be 8% in test [1], 86% in test [2], 21% in test [3] and 63% in test [4].

With `Cc1ccc2c(c1)c1c(n2-c2cscc2-c2cc3ccccc3s2)CCN(C)C1` [Compound No. 151], the inhibition at 0.1 µM in test [1] was determined as 59%; in test [2], 99%; in test [3], 67%; in test [4], 96%.

On to `Cc1csc(-c2ccc(-n3c4c(c5cc(C)ccc53)CN(C)CC4)nc2)c1` [Compound No. 144, 2,8-dimethyl-5-(5-(4-methylthiophen-2-yl)pyridin-2-yl)-2,3,4,5-tetrahydro-1H-pyrido[4,3-b]indole], for which the inhibition at 0.1 µM in test [1] turned out to be 68%; in test [2], 95%; in test [3], 52%; in test [4], 72%.

On to `Cc1ccc2c(c1)c1c(n2-c2ccccc2-c2ccc(F)cc2)CCN(C)C1` [Compound 10, 5-(4′-fluoro-biphenyl-2-yl)-2,8-dimethyl-2,3,4,5-tetrahydro-1H-pyrido[4,3-b]indole], for which the inhibition at 0.1 µM in test [1] came to 61%; in test [2] it was 85%; in test [3], 63%; in test [4] it was 88%.

With `Cc1ccc2c(c1)c1c(n2-c2cccc(-c3ccc(S(N)(=O)=O)cc3)c2)CCN(C)C1` [Compound No. 158, 3′-(2,8-dimethyl-3,4-dihydro-1H-pyrido[4,3-b]indol-5(2H)-yl)biphenyl-4-sulfonamide], the inhibition at 0.1 µM in test [1] was 7%; in test [2], 60%; in test [3], 14%; in test [4], 73%.

As for `Cc1ccc2c(c1)c1c(n2-c2ccoc2)CCN(C)C1` [Compound 15, 5-furan-3-yl-2,8-dimethyl-2,3,4,5-tetrahydro-1H-pyrido[4,3-b]indole], the inhibition at 0.1 µM in test [1] turned out to be 35%; in test [2], 30%; in test [3], 19%; in test [4] it was 10%.
